Results reported in US4497801A, “New peptides, process for preparation thereof and use thereof” (Fujisawa Pharmaceutical Co., Ltd., priority 1982, dated 1985).
Where a SMILES comes first, the peptide text is derived from it. [ ]: non-standard residue; d: D form. pGlu = O=C1CC[C@@H](C(=O)O)N1

Legend:
Type in all cases: in vivo, ICR strain mice
Escherichia coli No. 22 [1] = assay: Test 3: protective effect against bacterial infection (i.p. 8, 7, 4, 3 and 2 days before infection); conditions: mice observed 4 days
Protocol: (§1) Test animals: ICR strain mice, males, 4 weeks old, 10 to 20 animals per group.
(§2) Method of bacterial infection: Escherichia coli No. 22, cultured at 37° C. for 20 hours (concentration: 2.0×10^8 cfu/ml), was suspended in sterile physiological saline and the test mice were intraperitoneally inoculated with 0.5 ml of the suspension.
(3) Test 3 (protective effect against bacterial infection)
Test animals: Same as Test 1
(§3) Administration schedule: Each peptide of this invention in predetermined concentrations (aqueous solutions) was intraperitoneally administered 8, 7, 4, 3 and 2 days before infection.
(§4) Method of bacterial infection: Same as Test 1.

Escherichia coli No. 22 [2] = assay: Test 1: protective effect against bacterial infection (i.p. 7, 6, 3, 2 and 1 day before infection); conditions: mice observed 4 days
Protocol: (1) Test 1 (protective effect against bacterial infection)
as §1
(§5) Administration schedule: The peptides of this invention in predetermined concentrations (aqueous solutions) were intraperitoneally administered 7, 6, 3, 2 and 1 day before infection.
as §2

[3] = test system: Herpes simplex virus type 1 Miyama strain; assay: Test 6: protective effect against virus infection; conditions: 0.01 mg/kg i.p. 8, 7, 4, 3 and 2 days before i.p. HSV-1 infection; mice observed 14 days
Protocol: as §1
(6) Test 6 (protective effect against virus infection)
Test animals: Same as Test 5.
Administration schedule: Each peptide of this invention in aqueous solution was intraperitoneally administered 8, 7, 4, 3 and 2 days before infection (0.01 mg/kg).
(§6) Method of virus infection: Herpes simplex virus type 1 Miyama strain (concentration: 2×10^3 pfu/ml) was suspended in sterile physiological saline and 0.2 ml of the suspension was intraperitoneally inoculated.

Escherichia coli No. 22 [4] = assay: Test 2: protective effect against bacterial infection (i.p. 6, 5, 4 and 1 day before infection); conditions: mice observed 4 days
Protocol: as §1, §2
(2) Test 2 (protective effect against bacterial infection)
(§7) Test animals: Same as Test 1.
Administration schedule: Each peptide of this invention in predetermined concentrations (aqueous solutions) was intraperitoneally administered 6, 5, 4 and 1 day before infection.
as §4

Escherichia coli No. 22 [5] = assay: Test 5: protective effect against bacterial infection (i.p. 7, 6, 3, 2 and 1 day before infection); conditions: mice observed 4 days
Protocol: (5) Test 5 (protective effect against bacterial infection)
as §1, §5, §2

[6] = test system: Herpes simplex virus type 1 Miyama strain; assay: Test 4: protective effect against virus infection; conditions: mice observed 14 days
Excerpt: as §1
(4) Test 4 (protective effect against virus infection)
as §7, §3, §6

[7] = 0.01 mg/kg i.p. 8, 7, 4, 3 and 2 days before i.p. E. coli infection
[8] = 0.1 mg/kg i.p. 8, 7, 4, 3 and 2 days before i.p. E. coli infection
[9] = 1.0 mg/kg i.p. 8, 7, 4, 3 and 2 days before i.p. E. coli infection
[10] = 0.01 mg/kg i.p. 7, 6, 3, 2 and 1 day before i.p. E. coli infection
[11] = 0.1 mg/kg i.p. 7, 6, 3, 2 and 1 day before i.p. E. coli infection
[12] = 1.0 mg/kg i.p. 7, 6, 3, 2 and 1 day before i.p. E. coli infection
[13] = 1 mg/kg i.p. 6, 5, 4 and 1 day before i.p. E. coli infection

Compound | Survival rate (%) (Escherichia coli No. 22 [1]; [7]) | Survival rate (%) (Escherichia coli No. 22 [1]; [8]) | Survival rate (%) (Escherichia coli No. 22 [1]; [9]) | other results
H-KEKKE-OH [Example 14-(2), H-Lys-Glu-Lys-Lys-Glu-OH] | 50 | 50 | 70 | 
H-DLKEKKEVVEE-OH [Example 6-(2), H-Asp-Leu-Lys-Glu-Lys-Lys-Glu-Val-Val-Glu-Glu-OH] |  |  |  | Survival rate (%) (Escherichia coli No. 22 [2]; [10]): 70%; Survival rate (%) (Escherichia coli No. 22 [2]; [11]): 40%; Survival rate (%) (Escherichia coli No. 22 [2]; [12]): 60%
C[C@H](NC(=O)[C@@H]1CCC(=O)N1)C(=O)N[C@@H](CCCCN)C(=O)N[C@@H](CCCCN)C(=O)N[C@@H](CCC(N)=O)C(=O)NCC(=O)NCC(=O)N[C@@H](CO)C(=O)N[C@@H](CC(N)=O)C(=O)O [Example 17-(2), pGlu-Ala-Lys-Lys-Gln-Gly-Gly-Ser-Asn-OH] ([pGlu]AKKQGGSN-OH) |  |  |  | Survival rate (%) [3]: 90%
H-TKDLKEKKEVVEE-OH [Example 7-(2), H-Thr-Lys-Asp-Leu-Lys-Glu-Lys-Lys-Glu-Val-Val-Glu-Glu-OH] |  |  |  | Survival rate (%) (Escherichia coli No. 22 [2]; [10]): 50%; Survival rate (%) (Escherichia coli No. 22 [2]; [11]): 70%; Survival rate (%) (Escherichia coli No. 22 [2]; [12]): 40%
H-KLKSE-OH [Example 15-(2), H-Lys-Leu-Lys-Ser-Glu-OH] | 80 | 100 | 80 | 
H-KFDKSKLKKTETQE-OH [Example 10-(2), H-Lys-Phe-Asp-Lys-Ser-Lys-Leu-Lys-Lys-Thr-Glu-Thr-Gln-Glu-OH] | 50 | 60 | 70 | 
C[C@H](NC(=O)[C@H](CCCCN)NC(=O)[C@@H]1CCC(=O)N1)C(=O)N[C@@H](CCCCN)C(=O)N[C@@H](CCCCN)C(=O)N[C@@H](CCC(N)=O)C(=O)NCC(=O)NCC(=O)N[C@@H](CO)C(=O)N[C@@H](CC(N)=O)C(=O)O [Example 16-(4), pGlu-Lys-Ala-Lys-Lys-Gln-Gly-Gly-Ser-Asn-OH] ([pGlu]KAKKQGGSN-OH) |  |  |  | Survival rate (%) [3]: 85%
H-NVKAKIQDKEG-OH [Example 8-(2), H-Asn-Val-Lys-Ala-Lys-Ile-Gln-Asp-Lys-Glu-Gly-OH] | 80 | 60 | 90 | 
H-EQEKQ-OH [Example 11-(2), H-Glu-Gln-Glu-Lys-Gln-OH] | 70 | 50 | 70 | 
H-TKEKLKSELVAN-OH [Example 5-(2), H-Thr-Lys-Glu-Lys-Leu-Lys-Ser-Glu-Leu-Val-Ala-Asn-OH] |  |  |  | Survival rate (%) (Escherichia coli No. 22 [4]; [13]): 50%
pGlu-Lys-Ala-Lys-Ser-Gln-Gly-Gly-Ser-Asn-OH ([pGlu]KAKSQGGSN-OH; SMILES C[C@H](NC(=O)[C@H](CCCCN)NC(=O)[C@@H]1CCC(=O)N1)C(=O)N[C@@H](CCCCN)C(=O)N[C@@H](CO)C(=O)N[C@@H](CCC(N)=O)C(=O)NCC(=O)NCC(=O)N[C@@H](CO)C(=O)N[C@@H](CC(N)=O)C(=O)O) [Example 18-(2)] |  |  |  | Survival rate (%) (Escherichia coli No. 22 [5]; [10]): 60%; Survival rate (%) (Escherichia coli No. 22 [5]; [11]): 70%; Survival rate (%) (Escherichia coli No. 22 [5]; [12]): 80%
H-KSKLKKTETQE-OH [Example 9-(2), H-Lys-Ser-Lys-Leu-Lys-Lys-Thr-Glu-Thr-Gln-Glu-OH] | 70 | 70 | 70 | 
H-SKLKSNSTHQ-OH [Example 1-(2), H-Ser-Lys-Leu-Lys-Ser-Asn-Ser-Thr-His-Gln-OH] |  |  |  | Survival rate (%) ([6]; 0.01 mg/kg i.p. 8, 7, 4, 3 and 2 days before i.p. HSV-1 infection): 80%; Survival rate (%) ([6]; 0.1 mg/kg i.p. 8, 7, 4, 3 and 2 days before i.p. HSV-1 infection): 40%; Survival rate (%) ([6]; 1 mg/kg i.p. 8, 7, 4, 3 and 2 days before i.p. HSV-1 infection): 60%; Survival rate (%) (Escherichia coli No. 22 [4]; 0.1 mg/kg i.p. 6, 5, 4 and 1 day before i.p. E. coli infection): 40%; Survival rate (%) (Escherichia coli No. 22 [4]; [13]): 40%
H-KETIEQEKQ-OH [Example 12-(2), H-Lys-Glu-Thr-Ile-Glu-Gln-Glu-Lys-Gln-OH] | 70 | 50 | 50 | 
H-EKLKSELVAN-OH [Example 4-(2), H-Glu-Lys-Leu-Lys-Ser-Glu-Leu-Val-Ala-Asn-OH] |  |  |  | Survival rate (%) (Escherichia coli No. 22 [4]; [13]): 50%
